Measurements reported in ChEMBL document CHEMBL3124857, “Encoded library technology as a source of hits for the discovery and lead optimization of a potent and selective class of bactericidal direct inhibitors of Mycobacterium tuberculosis InhA” (J Med Chem, 2014).
≈ marks a conversion by molar mass, not a printed value. Calls of active or inactive are those of the source. The rule behind the calls is not given here.

Columns and labels:
[1] = test system: Mycobacterium tuberculosis; experiment: Antitubercular activity against wild type Mycobacterium tuberculosis H37Rv ATCC 25618 assessed as growth inhibition after 6 days by resazurin dye-based assay; type: functional; settings: for MIC90: H37Rv ATCC 25618, 144 h
[2] = target: T1, Enoyl-[acyl-carrier-protein] reductase [NADH] (Mycobacterium tuberculosis, UniProt P9WGR1); experiment: Inhibition of Mycobacterium tuberculosis full length biotinylated InhA (270 amino acids) using DDCoA as substrate assessed as NADH oxidation by fluorimetric analysis
T1 sequence (P9WGR1 whole entry): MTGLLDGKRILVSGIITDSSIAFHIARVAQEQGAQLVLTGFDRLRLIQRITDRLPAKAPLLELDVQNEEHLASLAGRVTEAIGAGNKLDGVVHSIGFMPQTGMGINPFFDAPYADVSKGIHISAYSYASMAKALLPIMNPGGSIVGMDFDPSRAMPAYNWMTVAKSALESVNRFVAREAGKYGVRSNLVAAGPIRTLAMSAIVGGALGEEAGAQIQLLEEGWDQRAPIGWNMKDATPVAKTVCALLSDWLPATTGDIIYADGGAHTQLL

Row | Structure (SMILES) | MIC90 [1] [µM] | IC50 [2] [nM] | growth inhibition (GI) [1]
1 | CCOC(=O)CCNC(=O)[C@@H]1C[C@@H](NC(=O)c2cc(CC)nn2C)CN1C(=O)c1coc2ccccc12 | 4 (≈ 2.04 µg/mL) | 22 | –
2 | CCc1cc(C(=O)N[C@@H]2C[C@@H](C(=O)NCc3nc(C)no3)N(C(=O)c3coc4ccccc34)C2)n(CC)n1 | 0.5 (≈ 0.26 µg/mL) | 4 | –
3 | CCc1cc(C(=O)N[C@@H]2C[C@@H](C(=O)NCC(=O)N(C)C)N(C(=O)c3coc4ccccc34)C2)n(C)n1 | – | – | Active
4 | CCc1cc(C(=O)N[C@@H]2C[C@@H](C(=O)NCCc3ccccn3)N(C(=O)c3coc4ccccc34)C2)n(CC)n1 | 0.5 (≈ 0.264 µg/mL) | 4 | –
5 | CCc1cc(C(=O)N[C@@H]2C[C@@H](C(=O)NCC(=O)OC)N(C(=O)c3coc4ccccc34)C2)n(Cc2ccccc2)n1 | > 31 | > 1000 | –
6 | CCc1cc(C(=O)N[C@@H]2C[C@@H](C(=O)NCc3ccn(CC)n3)N(C(=O)c3coc4ccccc34)C2)n(C)n1 | 4 (≈ 2.07 µg/mL) | 32 | –
7 | CCc1cc(C(=O)N[C@@H]2C[C@@H](C(=O)NCc3nccs3)N(C(=O)c3coc4ccccc34)C2)n(C)n1 | 2 (≈ 1.01 µg/mL) | 17 | –
8 | CCc1cc(C(=O)N[C@@H]2C[C@@H](C(=O)NCC(N)=O)N(C(=O)c3coc4ccccc34)C2)n(C)n1 | – | – | Active
9 | COC(=O)CNC(=O)[C@@H]1C[C@@H](NC(=O)c2cc(C3CC3)nn2C)CN1C(=O)c1coc2ccccc12 | 1 (≈ 0.494 µg/mL) | 15 | –
10 | CCc1cc(C(=O)N[C@@H]2C[C@@H](C(=O)NCCOC)N(C(=O)c3coc4ccccc34)C2)n(C)n1 | 4 (≈ 1.87 µg/mL) | 14 | –
11 | CCc1cc(C(=O)N[C@@H]2C[C@@H](C(=O)NCCN(C)C)N(C(=O)c3coc4ccccc34)C2)n(C)n1 | > 31 | 170 | –
12 | CCc1cc(C(=O)N[C@@H]2C[C@@H](C(=O)Nc3ccn(Cc4c(F)cccc4F)n3)N(C(=O)c3coc4ccccc34)C2)n(C)n1 | 0.7 (≈ 0.421 µg/mL) | 4 | –
13 | CCc1cc(C(=O)N[C@@H]2C[C@@H](C(=O)NCC(=O)OC)N(C(=O)c3coc4ccccc34)C2)n(CCO)n1 | > 31 | > 1000 | –
14 | CCc1cc(C(=O)N[C@@H]2C[C@@H](C(=O)NCCNC(C)=O)N(C(=O)c3coc4ccccc34)C2)n(C)n1 | 4 (≈ 1.98 µg/mL) | 20 | –
15 | CCc1cc(C(=O)N[C@@H]2C[C@@H](C(=O)NCC(=O)OC)N(C(=O)c3coc4ccccc34)C2)n(CC)n1 | 0.05 (≈ 0.0248 µg/mL) | 3 | –
16 | CCc1cc(C(=O)N[C@@H]2C[C@@H](C(=O)NCCc3ccccn3)N(C(=O)c3coc4ccccc34)C2)n(C)n1 | 1 (≈ 0.515 µg/mL) | 25 | –
17 | CCc1cc(C(=O)N[C@@H]2C[C@@H](C(=O)N[C@H](CO)Cc3ccccc3)N(C(=O)c3coc4ccccc34)C2)n(C)n1 | 1 (≈ 0.544 µg/mL) | 112 | –
18 | CCc1cc(C(=O)N[C@@H]2C[C@@H](C(=O)NCc3ccccc3)N(C(=O)c3coc4ccccc34)C2)n(C)n1 | 4 (≈ 2 µg/mL) | 41 | –
19 | CCCNC(=O)[C@@H]1C[C@@H](NC(=O)c2cc(CC)nn2C)CN1C(=O)c1coc2ccccc12 | 15.6 (≈ 7.04 µg/mL) | 21 | –
20 | CCNC(=O)[C@@H]1C[C@@H](NC(=O)c2cc(CC)nn2C)CN1C(=O)c1ccc2sccc2c1 | – | 121 | –
21 | CCc1cc(C(=O)N[C@@H]2C[C@@H](C(=O)NCc3ccc(C(F)(F)F)cc3)N(C(=O)c3coc4ccccc34)C2)n(C)n1 | 16 (≈ 9.08 µg/mL) | 42 | –
22 | CCc1cc(C(=O)N[C@@H]2C[C@@H](C(=O)Nc3nc(C)co3)N(C(=O)c3coc4ccccc34)C2)n(C)n1 | 8 (≈ 3.92 µg/mL) | 9 | –
23 | CCc1cc(C(=O)N[C@@H]2C[C@@H](C(=O)Nc3ccn(CC4CCCCC4)n3)N(C(=O)c3coc4ccccc34)C2)n(C)n1 | > 31 | > 1000 | –
24 | CCc1cc(C(=O)N[C@@H]2C[C@@H](C(=O)NCc3ccc(C)o3)N(C(=O)c3coc4ccccc34)C2)n(C)n1 | 1.5 (≈ 0.755 µg/mL) | 21 | –
25 | CCc1cc(C(=O)N[C@@H]2C[C@@H](C(=O)NCCO)N(C(=O)c3coc4ccccc34)C2)n(CC)n1 | 1 (≈ 0.468 µg/mL) | 3 | –
26 | CCc1cc(C(=O)N[C@@H]2C[C@@H](C(=O)Nc3cc(C)on3)N(C(=O)c3coc4ccccc34)C2)n(C)n1 | 16 (≈ 7.85 µg/mL) | 18 | –
27 | CCc1cc(C(=O)N[C@@H]2C[C@@H](C(=O)NCc3ccc(OC(F)(F)F)cc3)N(C(=O)c3coc4ccccc34)C2)n(C)n1 | 23.4 (≈ 13.7 µg/mL) | 5 | –
28 | CCc1cc(C(=O)N[C@@H]2C[C@@H](C(=O)NCc3ncco3)N(C(=O)c3coc4ccccc34)C2)n(C)n1 | 1 (≈ 0.491 µg/mL) | 5 | –
29 | CCc1cc(C(=O)N[C@@H]2C[C@@H](C(=O)NCc3ccc4c(c3)B(O)OC4)N(C(=O)c3coc4ccccc34)C2)n(CC)n1 | 0.2 (≈ 0.114 µg/mL) | 2 | –
